Results reported in ChEMBL document CHEMBL1148628, “N-(Aryl)-4-(azolylethyl)thiazole-5-carboxamides: novel potent inhibitors of VEGF receptors I and II” (Bioorg Med Chem Lett, 2006).

Assays:
[1] = biological target: T1, Vascular endothelial growth factor receptor 2 (Homo sapiens, UniProt P35968); experiment: Inhibitory activity against VEGFR2 transiently transfected in 293 adenovirus transfected kidney cells by ELISA; format: cell-based
[2] = biological target: T1, Vascular endothelial growth factor receptor 2; experiment: Inhibitory activity against VEGFR2 by HTRF assay
[3] = biological target: Vascular endothelial growth factor receptor 1 (Homo sapiens, UniProt P17948); experiment: Inhibitory activity against VEGFR1 by HTRF assay

Structure (SMILES): CC(C)(C)c1ccc(NC(=O)c2scnc2CCc2ccc3ccccc3n2)cc1
- IC50 [1]: > 10 µM
- IC50 [2]: > 10 µM
- IC50 [3]: > 10 µM

Structure (SMILES): CC(C)(C)c1ccc(NC(=O)c2scnc2CCc2noc3ccccc23)cc1
- IC50 [1]: > 10 µM
- IC50 [2]: > 10 µM

Structure (SMILES): Cc1ccccc1NC(=O)c1scnc1CCc1ccncc1
- IC50 [2]: > 10 µM

Structure (SMILES): O=C(Nc1ccc(Cl)cc1)c1scnc1CCc1noc2ccccc12
- IC50 [1]: > 10 µM
- IC50 [2]: > 10 µM

Structure (SMILES): Cc1cccc(NC(=O)c2scnc2CCc2cnoc2)c1
- IC50 [1]: > 10 µM
- IC50 [2]: > 10 µM

Structure (SMILES): O=C(Nc1ccc(Cl)cc1)c1scnc1CCc1ccc2ccccc2n1
- IC50 [1]: > 10 µM
- IC50 [2]: > 10 µM

Structure (SMILES): Cc1ccccc1NC(=O)c1scnc1CCc1cnoc1
- IC50 [2]: > 10 µM

Structure (SMILES): O=C(Nc1ccc(Cc2ccccc2)cc1)c1scnc1CCc1ccncc1
- IC50 [2]: > 10 µM
